This is an account of results in patent publication US9938257B2 (Sunshine Lake Pharma Co., Ltd., priority 2015, dated 2018).

Data set [1] can be described thus: Compound stability in human liver microsomes. Type of data set: in vitro ADME. Particulars: pH 7.4; for half-life at 5 μM: human liver microsomes 0.5 mg protein/mL, compound 5 μM, NADPH 1.0 mM, 37° C., read-out: Human T1/2; for CLint scaled at 5 μM: human liver microsomes, in vivo CLint extrapolated. As for the experimental part: (§1) Human or rat liver microsomes incubations were conducted in duplicate in polypropylene tubes. The typical incubation mixtures consisted of human or rat liver microsomes (0.5 mg protein/mL), compounds of interest (5 μM) and NADPH (1.0 mM) in a total volume of 200 μL potassium phosphate buffer (PBS, 100 mM, pH 7.4). Compounds were dissolved in DMSO and diluted with PBS such that the final concentration of DMSO was 0.05%. The enzymatic reactions were commenced with the addition of protein after a 3-min preincubation and incubated in a water bath open to the air at 37° C. Reactions were terminated at various time points (0, 5, 10, 15, 30, 60 min) by adding equal volume of ice-cold acetonitrile. The samples were stored at −80° C. until LC/MS/MS assays.
(§2) The concentrations of compounds in the incubation mixtures of human or rat liver microsomes were determined by a LC/MS/MS method. The ranges of the linearity in the concentration range were determined for each tested compounds.
(§3) A parallel incubation was performed using denatured microsomes as the negative control, and reactions were terminated at various time points (0, 15, 60 min) after incubation at 37° C.
(§4) Dextromethorphan (70 μM) was selected as the positive control, and reactions were terminated at various time points (0, 5, 10, 15, 30, 60 min) after incubation at 37° C. Both positive and negative control samples were included in each assay to ensure the integrity of the microsomal incubation system.
(§5) The concentrations of compounds in human or rat liver microsome incubations were plotted as a percentage of the relevant zero time point control for each reaction. The in vivo CLint were extrapolated (ref.: Naritomi, Y.; Terashita, S.; Kimura, S.; Suzuki, A.; Kagayama, A.; and Sugiyama, Y.; Prediction of human hepatic clearance from in vivo animal experiments and in vitro metabolic studies with liver microsomes from animals and humans. Drug Metab. Dispos., 2001, 29: 1316-1324).

Data set [2] can be described thus: Compound stability in rat liver microsomes. Type of data set: in vitro ADME. Particulars: pH 7.4; for half-life at 5 μM: rat liver microsomes 0.5 mg protein/mL, compound 5 μM, NADPH 1.0 mM, 37° C., read-out: Rat T1/2; for CLint scaled at 5 μM: rat liver microsomes, in vivo CLint extrapolated. As for the experimental part: as §1, §2, §3, §4, §5
A short description of data set [3]: Pharmacokinetics after intravenous and oral administration in rats. Particulars: for Clearance (CL) after iv dosing / AUC(0-t) / half-life / Vd: dose 1 mg/kg, iv dosing; for F: oral bioavailability, iv dose 1 mg/kg; for AUC(0-t) / half-life / Vd: rat, plasma; for Vd: read-out: Vss. Type of data set: in vivo. As for the experimental part: The compounds disclosed herein are assessed in pharmacokinetic studies in mice, rats, dogs or monkeys. The compounds are administered as a water solution, 2% HPMC+1% TWEEN®80 in water solution, 5% DMSO+5% solutol in saline, 4% MC suspension or capsule. For the intravenous administration, the animals are generally given at 0.5, 1 or 2 mg/kg dose. For the oral (p.o.) dosing, mice and rats are generally given 0.5, 1, 5 or 10 mg/kg dose, and dogs and monkeys are generally given 10 mg/kg dose. The blood samples (0.3 mL) are drawn at 0.25, 0.5, 1.0, 2.0, 3.0, 4.0, 6.0, 8.0, 12 and 24 h time points or 0.083, 0.25, 0.5, 1.0, 2.0, 4.0, 6.0, 8.0 and 24 h time points and centrifuged at 3,000 or 4000 rpm for 2 to 10 min. The plasma solutions are collected, and stored at −20° C. or −70° C. until analyzed by LC/MS/MS as described above.

In the next data set the target is JAK1 (h) (Homo sapiens (Human), UniProt P23458). The experiment in a line: JAK1 (h) kinase activity assay. Type of data set: biochemical. As for the experimental part:
(§6) The above assay procedure can be used to determine the IC50 for inhibition and/or the inhibition constant, Ki. The IC50 is defined as the concentration of compound required to reduce the enzyme activity by 50% under the condition of the assay. The IC50 value is estimated by preparing a 10 point curve using a ½ log dilution series (for example, a typical curve may be prepared using the following compound concentrations: 3 μM, 1 μM, 0.3 μM, 0.1 μM, 0.03 μM, 0.01 μM, 0.003 μM, 0.001 μM, 0.0003 μM and 0 μM).
JAK1 (h) is incubated with 20 mM Tris/HCl pH 7.5, 0.2 mM EDTA, 500 μM GEEPLYWSFPAKKK, 10 mM MgAcetate and [γ-^33P-ATP] (specific activity approx. 500 cpm/pmol, concentration as required). The reaction is initiated by the addition of the MgATP mix. After incubation for 40 minutes at room temperature, the reaction is stopped by the addition of 3% phosphoric acid solution. 10 μL of the reaction is then spotted onto a P30 filtermat and washed three times for 5 minutes in 75 mM phosphoric acid and once in methanol prior to drying and scintillation counting.
(§7) The kinase assays described herein were performed at Millipore UK Ltd, Dundee Technology Park, Dundee DD2 1SW, UK.

A further data set addresses Aurora-A (h) (Homo sapiens (Human), UniProt O14965). The experiment in a line: Aurora-A (h) kinase activity assay. In kind it is biochemical. As for the experimental part:
as §6
Aurora-A (h) is incubated with 8 mM MOPS pH 7.0, 0.2 mM EDTA, 200 μM LRRASLG (Kemptide), 10 mM MgAcetate and [γ-^33P-ATP] (specific activity approx. 500 cpm/pmol, concentration as required). The reaction is initiated by the addition of the MgATP mix. After incubation for 40 minutes at room temperature, the reaction is stopped by the addition of 3% phosphoric acid solution. 10 μL of the reaction is then spotted onto a P30 filtermat and washed three times for 5 minutes in 75 mM phosphoric acid and once in methanol prior to drying and scintillation counting.
as §7

A further data set concerns the target Aurora-B (h) (Homo sapiens (Human), UniProt Q96GD4). The experiment in a line: Aurora-B (h) kinase activity assay. Type of data set: biochemical. As for the experimental part: as §6
Aurora-B (h) is incubated with 8 mM MOPS pH 7.0, 0.2 mM EDTA, 30 μM AKRRRLSSLRA, 10 mM MgAcetate and [γ-^33PATP] (specific activity approx. 500 cpm/pmol, concentration as required). The reaction is initiated by the addition of the MgATP mix. After incubation for 40 minutes at room temperature, the reaction is stopped by the addition of a 3% phosphoric acid solution. 10 μL of the reaction is then spotted onto a P30 filtermat and washed three times for 5 minutes in 75 mM phosphoric acid and once in methanol prior to drying and scintillation counting.
as §7

Chain of Aurora-A (h) (O14965 whole entry): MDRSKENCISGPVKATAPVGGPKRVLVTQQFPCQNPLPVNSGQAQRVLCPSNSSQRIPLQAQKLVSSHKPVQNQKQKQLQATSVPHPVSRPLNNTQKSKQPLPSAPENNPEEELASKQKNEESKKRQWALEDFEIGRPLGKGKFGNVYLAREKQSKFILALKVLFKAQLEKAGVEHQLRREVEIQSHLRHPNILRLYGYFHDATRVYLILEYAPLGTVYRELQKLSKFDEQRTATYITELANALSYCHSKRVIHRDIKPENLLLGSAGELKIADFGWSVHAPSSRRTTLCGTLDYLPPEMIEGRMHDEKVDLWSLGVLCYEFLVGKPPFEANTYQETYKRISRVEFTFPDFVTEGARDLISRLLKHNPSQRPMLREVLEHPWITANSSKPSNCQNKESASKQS
Chain of Aurora-B (h) (Q96GD4 whole entry): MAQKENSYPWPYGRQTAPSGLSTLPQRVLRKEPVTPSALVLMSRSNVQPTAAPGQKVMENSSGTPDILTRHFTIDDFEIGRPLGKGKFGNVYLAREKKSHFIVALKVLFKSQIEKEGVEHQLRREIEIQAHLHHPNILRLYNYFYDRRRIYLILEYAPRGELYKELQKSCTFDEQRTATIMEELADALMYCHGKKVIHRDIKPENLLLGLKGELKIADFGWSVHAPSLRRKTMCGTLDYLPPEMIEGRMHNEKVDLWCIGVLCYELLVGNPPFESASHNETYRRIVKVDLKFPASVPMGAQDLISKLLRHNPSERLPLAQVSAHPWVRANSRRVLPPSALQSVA
Chain of JAK1 (h) (P23458 whole entry): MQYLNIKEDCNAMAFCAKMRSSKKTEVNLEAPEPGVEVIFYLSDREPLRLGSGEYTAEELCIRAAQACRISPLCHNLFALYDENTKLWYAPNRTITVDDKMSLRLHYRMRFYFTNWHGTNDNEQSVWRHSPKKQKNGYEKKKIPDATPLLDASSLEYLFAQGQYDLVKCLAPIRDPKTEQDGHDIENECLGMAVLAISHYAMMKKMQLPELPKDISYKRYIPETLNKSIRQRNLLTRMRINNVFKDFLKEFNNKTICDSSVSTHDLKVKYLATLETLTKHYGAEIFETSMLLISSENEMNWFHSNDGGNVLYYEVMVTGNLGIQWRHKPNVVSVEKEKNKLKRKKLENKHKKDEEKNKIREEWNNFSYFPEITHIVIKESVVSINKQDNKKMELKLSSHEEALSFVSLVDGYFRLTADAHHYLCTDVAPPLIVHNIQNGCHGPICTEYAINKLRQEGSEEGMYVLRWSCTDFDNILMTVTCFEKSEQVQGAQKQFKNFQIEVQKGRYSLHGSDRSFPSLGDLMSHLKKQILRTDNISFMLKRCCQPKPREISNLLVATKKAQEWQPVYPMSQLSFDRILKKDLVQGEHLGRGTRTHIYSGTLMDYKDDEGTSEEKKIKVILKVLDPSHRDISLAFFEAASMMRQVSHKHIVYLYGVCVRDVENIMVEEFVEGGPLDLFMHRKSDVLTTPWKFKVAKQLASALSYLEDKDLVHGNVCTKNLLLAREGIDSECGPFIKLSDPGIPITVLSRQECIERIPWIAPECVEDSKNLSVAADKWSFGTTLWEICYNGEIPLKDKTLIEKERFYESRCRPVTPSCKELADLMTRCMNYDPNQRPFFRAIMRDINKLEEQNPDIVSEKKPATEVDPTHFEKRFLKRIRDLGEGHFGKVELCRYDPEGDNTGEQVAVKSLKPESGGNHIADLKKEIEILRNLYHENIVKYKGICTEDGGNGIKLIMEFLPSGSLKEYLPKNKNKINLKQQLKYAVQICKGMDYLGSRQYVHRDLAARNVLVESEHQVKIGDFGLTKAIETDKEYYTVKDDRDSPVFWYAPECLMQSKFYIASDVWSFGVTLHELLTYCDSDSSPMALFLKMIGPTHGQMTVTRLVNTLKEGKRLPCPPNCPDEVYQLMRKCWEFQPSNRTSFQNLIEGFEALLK

Take `CC(=O)N1CC2CC(Nc3nc(Nc4cnn(CC(C)(C)O)c4)ncc3Cl)CC2C1` (stereo not drawn) [Ex. 1, 1-(5-((5-chloro-2-((1-(2-hydroxy-2-methylpropyl)-1H-pyrazol-4-yl)amino)pyrimidin-4-yl)amino)hexahydrocyclopenta[c]pyrrol-2(1H)-yl)ethanone]: in data set [1], the half-life at 5 μM is 148 min and the CLint scaled (commonly the rate of metabolic loss divided by the concentration) at 5 μM is 11.7 mL/min/kg. Also, in data set [2], the half-life at 5 μM turned out to be 112 min and the CLint scaled at 5 μM is 22.2 mL/min/kg. Further, in data set [3], the “Clearance (CL) after iv dosing” value is 46.2 mL/min/kg; the F is 61.7%; the AUC(0-t) (as a rule, exposure summed from dosing to a finite time, without extrapolation to infinity) is 360 ng·h/mL; the half-life was 38.4 min. In addition, the Vd in data set [3] was 1.53 L/kg. For the same compound, at JAK1 (h), it took 10 nM to reach half-maximal inhibition (IC50). Moreover, at Aurora-A (h), the IC50 (as a rule, the concentration that gives 50% inhibition) was determined as 58 nM.

Take `CCNS(=O)(=O)N1CC2CC(Nc3nc(Nc4cnn(C)c4)ncc3Cl)CC2C1` (stereo not drawn) [Ex. 24, 5-((5-chloro-2-((1-methyl-1H-pyrazol-4-yl)amino)pyrimidin-4-yl)amino)-N-ethylhexahydrocyclopenta[c]pyrrole-2(1H)-sulfonamide]: in data set [1], the half-life at 5 μM turned out to be 34 min and the CLint scaled at 5 μM was 51.2 mL/min/kg. Further, in data set [2], the half-life at 5 μM worked out at 9.3 min and the CLint scaled at 5 μM was 267 mL/min/kg. For the same compound, in data set [3], the “Clearance (CL) after iv dosing” value was determined as 75.8 mL/min/kg, the F is 31.9%, the AUC(0-t) was determined as 231 ng·h/mL and the half-life was 24 min. In addition, in data set [3], the Vd is 2.02 L/kg. Also, inhibition against JAK1 (h) was half-maximal at 2 nM (IC50). The compound also displayed an IC50 against Aurora-A (h) of 3 nM. On Aurora-B (h), the 50% inhibitory concentration (IC50) was determined as 0.7 nM.

Turning to `Cn1cc(Nc2ncc(Cl)c(NC3CC4CN(S(=O)(=O)NC5CC5)CC4C3)n2)cn1` (stereo not drawn) [Ex. 34, 5-((5-chloro-2-((1-methyl-1H-pyrazol-4-yl)amino)pyrimidin-4-yl)amino)-N-cyclopropylhexahydrocyclopenta[c]pyrrole-2(1H)-sulfonamide], in data set [1], the half-life at 5 μM is 35.7 min and the CLint scaled at 5 μM is 48.6 mL/min/kg. In data set [2], the half-life at 5 μM was 17.8 min and the intrinsic clearance (CLint scaled) at 5 μM is 140 mL/min/kg. Besides, in data set [3], the “Clearance (CL) after iv dosing” value was 48.8 mL/min/kg, the F stood at 54.0%, the AUC(0-t) worked out at 348 ng·h/mL and the half-life was 17.4 min. Moreover, in data set [3], the Vd was 1.18 L/kg. The IC50 at JAK1 (h) was found to be 3 nM. This compound also registered an IC50 against Aurora-A (h) of 1 nM. Further, the IC50 against Aurora-B (h) was determined as 0.8 nM.

Take `CC(O)Cn1cc(Nc2ncc(Cl)c(NC3CC4CN(S(=O)(=O)C5CC5)CC4C3)n2)cn1` (stereo not drawn) [Ex. 44, 1-(4-((5-chloro-4-((2-(cyclopropylsulfonyl)octahydrocyclopenta[c]pyrrol-5-yl)amino)pyrimidin-2-yl)amino)-1H-pyrazol-1-yl)propan-2-ol]: in data set [3], the “Clearance (CL) after iv dosing” value was 60.8 mL/min/kg, the F came out at 31.4%, the AUC(0-t) is 276 ng·h/mL and the half-life was 51.6 min. The Vd in data set [3] came to 1.75 L/kg. Further, the IC50 against Aurora-A (h) turned out to be 5 nM. Moreover, 1 nM corresponded to half-maximal inhibition against Aurora-B (h) (IC50).

In the case of `CC(C)(O)Cn1cc(Nc2ncc(Cl)c(NC3CC4CN(C(=O)CC#N)CC4C3)n2)cn1` (stereo not drawn) [Ex. 2, 3-(5-((5-chloro-2-((1-(2-hydroxy-2-methylpropyl)-1H-pyrazol-4-yl)amino)pyrimidin-4-yl)amino)hexahydrocyclopenta[c]pyrrol-2(1H)-yl)-3-oxopropanenitrile], the half-life at 5 μM in data set [1] was determined as 106 min; in data set [2] it was 107 min. In addition, the intrinsic clearance (CLint scaled) at 5 μM in data set [1] is 16.4 mL/min/kg; in data set [2], 23.3 mL/min/kg. Moreover, the values for the half-maximal inhibitory concentration (IC50) against JAK1 (h) and against Aurora-A (h) were 2 nM and 28 nM, respectively.

In the case of `CCNS(=O)(=O)N1CC2CC(Nc3nc(Nc4cnn(CC(C)O)c4)ncc3Cl)CC2C1` (stereo not drawn) [Ex. 45, 5-((5-chloro-2-((1-(2-hydroxypropyl)-1H-pyrazol-4-yl)amino)pyrimidin-4-yl)amino)-N-ethylhexahydrocyclopenta[c]pyrrole-2(1H)-sulfonamide], in data set [3], the “Clearance (CL) after iv dosing” value amounted to 62.3 mL/min/kg, the F is given as 27.1%, the AUC(0-t) was 267 ng·h/mL and the half-life is 39.6 min. For the same compound, the Vd in data set [3] came out at 1.97 L/kg. The IC50 at Aurora-A (h) was 5 nM. For the same compound, the IC50 against Aurora-B (h) was found to be 0.8 nM.

Consider `Cn1cc(Nc2ncc(Cl)c(NC3CC4CN(C(=O)C5CC5)CC4C3)n2)cn1` (stereo not drawn) [Ex. 14, (5-((5-chloro-2-((1-methyl-1H-pyrazol-4-yl)amino)pyrimidin-4-yl)amino)hexahydrocyclopenta[c]pyrrol-2(1H)-yl)(cyclopropyl)methanone], for which the half-life at 5 μM in data set [1] was 44.2 min; in data set [2] it was 3.33 min. The CLint scaled at 5 μM in data set [1] was 39.4 mL/min/kg; in data set [2], 745 mL/min/kg. Besides, the results for the IC50 at JAK1 (h) and on Aurora-A (h) were 6 nM and 21 nM, respectively.

For `CC(O)Cn1cc(Nc2ncc(Cl)c(NC3CC4CN(S(=O)(=O)NC5CC5)CC4C3)n2)cn1` (stereo not drawn) [Ex. 47, 5-((5-chloro-2-((1-(2-hydroxypropyl)-1H-pyrazol-4-yl)amino)pyrimidin-4-yl)amino)-N-cyclopropylhexahydrocyclopenta[c]pyrrole-2(1H)-sulfonamide], in data set [3], the “Clearance (CL) after iv dosing” value stood at 69.3 mL/min/kg, the F amounted to 22.4%, the AUC(0-t) was 239 ng·h/mL and the half-life was 42.6 min. In addition, the Vd in data set [3] stood at 2.37 L/kg. The compound further registered an IC50 against Aurora-A (h) of 7 nM. This compound yielded an IC50 against Aurora-B (h) of 0.6 nM.

For `CC(O)Cn1cc(Nc2ncc(Cl)c(NC3CC4CN(S(=O)(=O)CC5CC5)CC4C3)n2)cn1` (stereo not drawn) [Ex. 46, 1-(4-((5-chloro-4-((2-((cyclopropylmethyl)sulfonyl)octahydrocyclopenta[c]pyrrol-5-yl)amino)pyrimidin-2-yl)amino)-1H-pyrazol-1-yl)propan-2-ol], in data set [3], the “Clearance (CL) after iv dosing” value turned out to be 60.7 mL/min/kg, the F is 24.9%, the AUC(0-t) turned out to be 277 ng·h/mL and the half-life was 15.6 min. Further, the Vd in data set [3] was found to be 1.13 L/kg. The IC50 on Aurora-A (h) came to 10 nM. The IC50 against Aurora-B (h) stood at 1 nM.
